Molecules are shown by their SMILES.

Data on 18 molecules can be found in patent publication US12486269B2 (Aconcagua Bio, Inc., priority 2024, dated 2025).

Assay [1] concerns the target T1, COS-7/AMY3 (human calcitonin receptor (CTR) and RAMP3) (Homo sapiens, UniProt O60896+P30988).
T1 construct: expressed in transfected cells; host or cells: COS-7
The assay can be described thus: Amylin Receptor cAMP Assay II. The format is cell-based. Conditions: values marked **: Amylin Receptor cAMP Assay II; COS-7/AMY3 cells, cAMP dynamic 2 kit, 30 min; read-out: Amylin Receptor cAMP Stimulation Activity: EC50. The source says:
AMYRs are heterodimers of the class B calcitonin (CT) G-protein-coupled receptor (CTR) and receptor activity-modifying proteins (RAMPs). All three RAMPs can interact with the CTR and form AMY1, AMY2, AMY3 with RAMP1, RAMP2 and RAMP3, respectively. Like other class B1 GPCRs, the CT receptor family is canonically coupled to Gs-mediated cAMP production, and measurement of cAMP accumulation has been the primary assay used to determine peptide selectivity and potency.
(§1) To optimize functional activity directed toward Gαs coupling, COS-7 cells were stably transfected with human calcitonin receptor (CTR) and RAMP3, simultaneously. 100×concentration of compound working solutions were prepared with 4-fold serial dilution in 384-well Echo LDV plate (Labcyte, Cat #LP-0200-BC). 200 nL/well 100×concentration of compound working solutions were moved to 384-well white microplate (Perkin Elmer, Cat #6007680) using Labcyte ECHO550. 1×10^5 cells/mL COS-7/AMY3 cell suspensions prepared with assay buffer [HBSS containing 20 mM HEPES (Gibco, Cat #15630-080), 0.5 mM IBMX (Sigma, Cat #15879) and 0.1% Casein (Sigma, Cat #C4765)], 20 μL cell suspensions were added to each well of previous generated assay plate which already contains 200 nL compound at 100×concentration using ThermoFisher Multidrop Combi (2000 cells/well). Seal the plate and incubate at 37° C. with 5% CO2 for 30 min.
(§2) After incubation, the cAMP assay signal was generated using cAMP dynamic 2 kit (Revvity, Cat #62AM4PEC). 10 μL cAMP-d2 working solution was added to each well, followed by 10 μL Anti-cAMP antibody-cryptate working solution which was added to each well using CERTUS FLEX LIQUID […]. The samples were then incubated at room temperature for 1 hour protected from light. the fluorescence was read at 665 and 615 nm with Reader PerkinElmer EnVision 2105. % Activity=100−(mean RLU of test sample−mean RLU of positive control)/(mean RLU of vehicle control−mean RLU of positive control)×100 Calcitonin Receptor (CTR) cAMP Assay

Assay [2] has as its target T2, human calcitonin receptor (CTR) (Homo sapiens, UniProt P30988).
T2 construct: expressed in transfected cells; host or cells: COS-7 (COS7-human CTR Clone #2)
T2 sequence (P30988 25-474): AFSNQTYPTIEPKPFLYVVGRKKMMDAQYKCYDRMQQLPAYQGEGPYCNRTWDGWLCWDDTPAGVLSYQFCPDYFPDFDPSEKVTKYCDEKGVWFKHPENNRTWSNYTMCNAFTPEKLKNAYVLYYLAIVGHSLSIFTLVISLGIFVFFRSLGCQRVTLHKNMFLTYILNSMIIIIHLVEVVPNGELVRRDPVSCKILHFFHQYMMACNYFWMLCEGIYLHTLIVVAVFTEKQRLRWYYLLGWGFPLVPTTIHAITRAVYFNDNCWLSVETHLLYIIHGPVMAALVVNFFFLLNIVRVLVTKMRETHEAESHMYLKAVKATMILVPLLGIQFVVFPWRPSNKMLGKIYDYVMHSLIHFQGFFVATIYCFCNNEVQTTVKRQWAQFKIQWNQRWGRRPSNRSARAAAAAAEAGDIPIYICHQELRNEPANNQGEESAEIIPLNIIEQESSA
The assay can be described thus: Calcitonin Receptor (CTR) cAMP Assay. It is filed as cell-based. The note with it: COS7-human CTR Clone #2 stable cell line, cAMP dynamic 2 kit, 30 min; read-out: Calcitonin Receptor cAMP Stimulation Activity: EC50. Here is the method: as §2
The calcitonin receptor (CTR) belongs to the subfamily of GPCRs known as the secretin or ‘B’ family of GPCRs. Like other class B1 GPCRs, the CT receptor family is canonically coupled to Gs-mediated cAMP production, and measurement of cAMP accumulation has been the primary assay used to determine peptide selectivity and potency.
as §1, with “to create COS7-human CTR Clone #2 stable cell line.” for “and RAMP3, simultaneously.”, “COS7-human CTR Clone #2” for “COS-7/AMY3”
After incubation, the cAMP assay signal was generated using cAMP dynamic 2 kit (Revvity, Cat #62AM4PEC). 10 μL cAMP-d2 working solution was added to each well, followed by 10 μL Anti-cAMP antibody-cryptate working solution which was added to each well using CERTUS FLEX LIQUID […]. The samples were then incubated at room temperature for 1 hour protected from light. the fluorescence was read at 665 and 615 nm with Reader PerkinElmer EnVision 2105. % Activity=100−(mean RLU of test sample−mean RLU of positive control)/(mean RLU of vehicle control−mean RLU of positive control)×100

T1 sequence (O60896 24-148, one chain of several): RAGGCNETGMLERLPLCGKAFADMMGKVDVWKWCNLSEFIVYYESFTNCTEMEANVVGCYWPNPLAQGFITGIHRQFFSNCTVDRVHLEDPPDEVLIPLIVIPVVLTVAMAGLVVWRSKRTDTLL

For `O=C(NCc1ccc(F)c(F)c1)c1ccc(-c2c3c(nc(CCc4ccc(F)cc4)c2-c2noc(=O)[nH]2)[C@@H]2CCCN2C3=O)s1` [Compound 101], the 50% effective concentration (EC50) (as a rule, the concentration at which the effect is half-maximal) was 101 nM in assay [1] and 12.9 nM in assay [2].
The matching figures for `COc1cccc2c1CC[C@H]2Nc1nccc2cc(-c3c4c(nc(CCc5ccc(F)cc5)c3-c3n[nH]c(=O)o3)[C@@H]3CCCN3C4=O)sc12` [Compound 102, 5-((S)-2-(4-fluorophenethyl)-4-(7-(((R)-4-methoxy-2,3-dihydro-1H-inden-1-yl)amino)thieno[2,3-c]pyridin-2-yl)-5-oxo-7,8,9,9a-tetrahydro-5H-pyrido[2,3-a]pyrrolizin-3-yl)-1,3,4-oxadiazol-2(3H)-one]: 12.2 nM and 0.8 nM.
Turning to `O=C(NCc1ccc(F)c(F)c1)c1ccc(-c2c3c(nc(CCc4ccc(F)cc4)c2-c2cc(=O)[nH]o2)[C@@H]2CCCN2C3=O)s1` [Compound 103, (S)—N-(3,4-difluorobenzyl)-5-(2-(4-fluorophenethyl)-5-oxo-3-(3-oxo-2,3-dihydroisoxazol-5-yl)-7,8,9,9a-tetrahydro-5H-pyrido[2,3-a]pyrrolizin-4-yl)thiophene-2-carboxamide], the EC50 in assay [1] came out at 273 nM; in assay [2] it was 21.5 nM.
`COc1cccc2c1CC[C@H]2Nc1nccc2cc(-c3c4c(nc(CCc5ccc(F)cc5)c3-c3noc(=O)[nH]3)[C@@H]3CCCN3C4=O)sc12` [Compound 104]: the EC50 in assay [1] was 25.5 nM; in assay [2] it was 0.926 nM.
Consider `CN(Cc1ccc(F)c(F)c1)c1nccc2cc(-c3c4c(nc(CCc5ccc(F)cc5)c3-c3noc(=O)[nH]3)[C@@H]3CCCN3C4=O)sc12` [Compound 107, (S)-3-(4-(7-((3,4-difluorobenzyl)(methyl)amino)thieno[2,3-c]pyridin-2-yl)-2-(4-fluorophenethyl)-5-oxo-7,8,9,9a-tetrahydro-5H-pyrido[2,3-a]pyrrolizin-3-yl)-1,2,4-oxadiazol-5(4H)-one], for which the EC50 in assay [1] was 34.4 nM; in assay [2], 9.03 nM.
Regarding `O=C1c2c(nc(CCc3ccc(F)cc3)c(-c3noc(=O)[nH]3)c2-c2ccc3c(NCc4ccc(F)c(F)c4)nccc3c2)[C@@H]2CCCN12` [Compound 111], the results for the EC50 in assay [1] and in assay [2] were 401 nM and 205 nM, respectively.
Take `O=C1c2c(nc(CCc3ccc(F)cc3)c(-c3noc(=O)[nH]3)c2-c2ccc3c(c2)CC[C@H]3OCc2ccc(F)c(F)c2)[C@@H]2CCCN12` [Compound 113]: the EC50 in assay [1] stood at 1120 nM; in assay [2], 271 nM.
Consider `O=C1c2c(nc(CCc3ccc(F)cc3)c(-c3noc(=O)[nH]3)c2-c2ccc3c(c2)CCCN3CCc2ccc(F)c(F)c2)[C@@H]2CCCN12` [Compound 114], for which the concentration giving a half-maximal response (EC50) is 425 nM in assay [1] and 396 nM in assay [2].
As for `CN(Cc1ccc(F)c(F)c1)C(=O)c1ccc(-c2c3c(nc(CCc4ccc(F)cc4)c2-c2noc(=O)[nH]2)[C@@H]2CCCN2C3=O)s1` [Compound 115], the EC50 in assay [1] is 566 nM; in assay [2], 28.8 nM.
With `O=C(c1ccc(-c2c3c(nc(CCc4ccc(F)cc4)c2-c2noc(=O)[nH]2)[C@@H]2CCCN2C3=O)s1)N1CCCC1c1ccc(F)c(F)c1` (stereo partly drawn) [Compound 116], the EC50 in assay [1] turned out to be 253 nM; in assay [2] it was 25.6 nM.
For the molecule `O=C1c2c(nc(CCc3ccc(F)cc3)c(-c3noc(=O)[nH]3)c2-c2cc3ccnc(N4CCCC4c4ccc(F)c(F)c4)c3s2)[C@@H]2CCCN12` (stereo partly drawn) [Compound 117], the EC50 worked out at 113 nM in assay [1] and 53.5 nM in assay [2].
Consider `O=C(N[C@@H]1CCc2cc(F)c(F)cc21)c1ccc(-c2c3c(nc(CCc4ccc(F)cc4)c2-c2noc(=O)[nH]2)[C@@H]2CCCN2C3=O)s1` [Compound 120], for which the EC50 in assay [1] was 23.6 nM; in assay [2], 1.24 nM.
`COc1cccc2c1CC[C@H]2Nc1nccc2cc(-c3c4c(nc(CCc5ccc(C(F)(F)F)cc5)c3-c3noc(=O)[nH]3)[C@@H]3CCCN3C4=O)sc12` [Compound 123]: the concentration giving a half-maximal response (EC50) in assay [1] is 42.9 nM; in assay [2], 1.19 nM.
`COc1cccc2c1CC[C@H]2Nc1nccc2cc(-c3c4c(nc(CCc5cccc(C(F)(F)F)c5)c3-c3noc(=O)[nH]3)[C@@H]3CCCN3C4=O)sc12` [Compound 124, 3-((S)-4-(7-(((R)-4-methoxy-2,3-dihydro-1H-inden-1-yl)amino)thieno[2,3-c]pyridin-2-yl)-5-oxo-2-(3-(trifluoromethyl)phenethyl)-7,8,9,9a-tetrahydro-5H-pyrido[2,3-a]pyrrolizin-3-yl)-1,2,4-oxadiazol-5(4H)-one]: the EC50 in assay [1] came to 18.2 nM; in assay [2], 0.628 nM.
With `COc1cccc2c1CC[C@H]2Nc1nccc2cc(-c3c4c(nc(CCc5ccccc5C(F)(F)F)c3-c3noc(=O)[nH]3)[C@@H]3CCCN3C4=O)sc12` [Compound 125, 3-((S)-4-(7-(((R)-4-methoxy-2,3-dihydro-1H-inden-1-yl)amino)thieno[2,3-c]pyridin-2-yl)-5-oxo-2-(2-(trifluoromethyl)phenethyl)-7,8,9,9a-tetrahydro-5H-pyrido[2,3-a]pyrrolizin-3-yl)-1,2,4-oxadiazol-5(4H)-one], the EC50 in assay [1] turned out to be 50.5 nM; in assay [2], 0.711 nM.
`COc1cccc2c1CC[C@H]2Nc1nccc2cc(-c3c4c(nc(CCc5ccc(C6CC6)cc5)c3-c3noc(=O)[nH]3)[C@@H]3CCCN3C4=O)sc12` [Compound 127, 3-((S)-2-(4-cyclopropylphenethyl)-4-(7-(((R)-4-methoxy-2,3-dihydro-1H-inden-1-yl)amino)thieno[2,3-c]pyridin-2-yl)-5-oxo-7,8,9,9a-tetrahydro-5H-pyrido[2,3-a]pyrrolizin-3-yl)-1,2,4-oxadiazol-5(4H)-one]: the figures for the EC50 in assay [1] and in assay [2] were 143 nM and 4.36 nM, respectively.
For the molecule `COc1cccc2c1CC[C@H]2Nc1nccc2cc(-c3c4c(nc(CC5CCc6cc(F)ccc65)c3-c3noc(=O)[nH]3)[C@@H]3CCCN3C4=O)sc12` (stereo partly drawn) [Compound 128], the 50% effective concentration (EC50) in assay [1] worked out at 21.9 nM; in assay [2], 1.13 nM.
With `O=C1c2c(nc(CCc3ccc(F)cc3)c(-c3noc(=O)[nH]3)c2-c2cc3ccnc(NCc4ccc(F)c(F)c4)c3s2)[C@@H]2CCCN12` [Compound 130], the 50% effective concentration (EC50) in assay [1] is 38.3 nM; in assay [2], 3.06 nM.
